# Results: patent US9988379B2, “GPR40 receptor agonist, methods of preparing the same, and pharmaceutical compositions containing the same as an active agent” (LG CHEM, LTD., priority 2012, dated 2018)
# Biological target: T1, human GPR40 (Homo sapiens, UniProt O14842)
# T1 construct: expressed in transfected cells; host or cells: CHO-K1
# Experiment: Induction of Ca2+ (calcium flux assay) using human GPR40 expression cell line
# Type: cell-based
# Details: read-out: EC0.5
# How it was run: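 CHO-K1 cells stably transfected with human GPR40, plated 24 h, loaded 1 h at 37° C with Calcium 5 dye in HBSS/HEPES pH 7.4. Intracellular calcium change after compound addition read on FlexStation; concentration–response of relative activity used to derive EC0.5.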
# T1 sequence (O14842 whole entry): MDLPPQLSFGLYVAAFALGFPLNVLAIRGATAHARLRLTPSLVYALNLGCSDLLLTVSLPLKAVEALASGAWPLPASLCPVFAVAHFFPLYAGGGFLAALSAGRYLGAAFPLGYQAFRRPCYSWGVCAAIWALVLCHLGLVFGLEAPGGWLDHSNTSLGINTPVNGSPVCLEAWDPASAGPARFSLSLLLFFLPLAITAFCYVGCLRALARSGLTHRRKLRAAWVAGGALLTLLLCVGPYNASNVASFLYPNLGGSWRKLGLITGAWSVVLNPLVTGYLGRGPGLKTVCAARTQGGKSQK
row,SMILES,EC50 [nM]
1,"CC(C)Cn1ccc2ccc(COc3ccc([C@H](CC(=O)O)c4ccon4)cc3)nc21 [Example 98, (S)-3-[4-(1-isobutyl-1H-pyrrolo[2,3-b]pyridin-6-ylmethoxy)-phenyl]-3-isoxazol-3-yl-propanoic acid]",1 to 50
2,"CC#C[C@@H](CC(=O)O)c1ccc(OCc2ccc3c(cnn3CC3CCCC3)c2)cc1 [Example 163, (S)-3-[4-(1-cyclopentylmethyl-1H-indazol-5-ylmethoxy)-phenyl]-hex-4-ynoic acid]",1 to 50
3,"CC#C[C@@H](CC(=O)O)c1ccc(OCc2ccc3ccn(Cc4ccc(C)nc4)c3c2C)cc1 [Example 81, (S)-3-{4-[7-methyl-1-(6-methyl-pyridin-3-ylmethyl)-1H-indol-6-ylmethoxy]-phenyl}-hex-4-ynoic acid]",1 to 50
4,"CC#C[C@@H](CC(=O)O)c1ccc(OCc2cc(C)c3c(cnn3C3CCCC3)c2)cc1 [Example 171, (S)-3-[4-(1-cyclopentyl-7-methyl-1H-indazol-5-ylmethoxy)-phenyl]-hex-4-ynoic acid]",1 to 50
5,"CC#C[C@@H](CC(=O)O)c1ccc(OCc2ccc3c(cnn3Cc3ccccc3)c2)cc1 [Example 111, (S)-3-[4-(1-benzyl-1H-indazol-5-ylmethoxy)-phenyl]-hex-4-ynoic acid]",1 to 50
6,"CC#C[C@@H](CC(=O)O)c1ccc(OCc2cccc3c2c(C)nn3CCCC)cc1 [Example 205, (S)-3-[4-(1-butyl-3-methyl-1H-indazol-4-ylmethoxy)-phenyl]-hex-4-ynoic acid]",16
7,"CC#C[C@@H](CC(=O)O)c1ccc(OCc2ccc3cn(Cc4ccncn4)nc3c2)cc1 [Example 76, (S)-3-[4-(2-pyrimidin-4-ylmethyl-2H-indazol-6-ylmethoxy]-phenyl}-hex-4-ynoic acid]",≥ 500
8,"CC#C[C@@H](CC(=O)O)c1ccc(OCc2ccc3cnn(Cc4cnccn4)c3c2)cc1 [Example 70, (S)-3-[4-(1-pyrazin-2-ylmethyl-1H-indazol-6-ylmethoxy]-phenyl}-hex-4-ynoic acid]",50 to 500
9,"O=C(O)C[C@@H](c1ccc(OCc2ccc3ccn(Cc4ccccc4)c3n2)cc1)c1ccon1 [Example 91, (S)-3-[4-(1-benzyl-1H-pyrrolo[2,3-b]pyridin-6-ylmethoxy)-phenyl]-3-isoxazol-3-yl-propanoic acid]",30
10,"CC#C[C@@H](CC(=O)O)c1ccc(OCc2ccc3c(c2)c(C)nn3C(C)C)cc1 [Example 187, (S)-3-[4-(1-isopropyl-3-methyl-1H-indazol-5-ylmethoxy)-phenyl]-hex-4-ynoic acid]",1 to 50
11,"O=C(O)CCc1ccc(NCc2ccc3ccn(Cc4ccccc4)c3c2Cl)cc1 [Example 7, 3-{4-[(1-benzyl-7-chloro-1H-indol-6-ylmethyl)-amino]-phenyl}-propanoic acid]",20
12,"CC#C[C@@H](CC(=O)O)c1ccc(OCc2ccc3c(CN4CCCCC4)nn(CC(C)C)c3c2C)cc1 [Example 218, (S)-3-[4-(1-isobutyl-7-methyl-3-piperidin-1-ylmethyl-1H-indazol-6-ylmethoxy)-phenyl]-hex-4-ynoic acid]",14
13,"CC#C[C@@H](CC(=O)O)c1ccc(OCc2ccc3ccn(Cc4ccc(S(C)(=O)=O)cc4)c3c2C)cc1 [Example 27, (S)-3-{4-[1-(4-methanesulfonyl-benzyl)-7-methyl-1H-indol-6-ylmethoxy]-phenyl}-hex-4-ynoic acid]",30
14,"CC#C[C@@H](CC(=O)O)c1ccc(OCc2ccc3cnn(Cc4cccnc4)c3c2C)cc1 [Example 226, (S)-3-[4-(7-methyl-1-pyridin-3-ylmethyl-1H-indazol-6-ylmethoxy)-phenyl]-hex-4-ynoic acid]",9
15,"N#CC(CC(=O)O)c1ccc(OCc2ccc3c(cnn3Cc3ccccc3)c2)cc1 (stereo not shown) [Example 162, 3-[4-(1-benzyl-1H-indazol-5-ylmethoxy)-phenyl]-3-cyano-propanoic acid]",20
16,"CC#C[C@@H](CC(=O)O)c1ccc(OCc2ccc3cnn(Cc4ccncn4)c3c2)cc1 [Example 75, (S)-3-[4-(1-pyrimidin-4-ylmethyl-1H-indazol-6-ylmethoxy)-phenyl]-hex-4-ynoic acid]",50 to 500
